According to ChEMBL document CHEMBL1153362, “Discovery of 6-({4-[2-(4-tert-butylphenyl)-1H-benzimidazol-4-yl]piperazin-1-yl}methyl)quinoxaline (WAY-207024): an orally active antagonist of the gonadotropin releasing hormone receptor (GnRH-R)” (J Med Chem, 2009):
pIC50, pKi: −log10 of the molar value. In brackets after ≈: the same amount, converted by molar mass. Activity calls are given as the source filed them. No cut-off for these calls is given here.

Legend:
[1] = molecular target: T1, Gonadotropin-releasing hormone receptor (Rattus norvegicus, UniProt P30969); assay: Displacement of [D-Trp6]-GnRH from rat recombinant GnRH receptor
T1 sequence (P30969 whole entry): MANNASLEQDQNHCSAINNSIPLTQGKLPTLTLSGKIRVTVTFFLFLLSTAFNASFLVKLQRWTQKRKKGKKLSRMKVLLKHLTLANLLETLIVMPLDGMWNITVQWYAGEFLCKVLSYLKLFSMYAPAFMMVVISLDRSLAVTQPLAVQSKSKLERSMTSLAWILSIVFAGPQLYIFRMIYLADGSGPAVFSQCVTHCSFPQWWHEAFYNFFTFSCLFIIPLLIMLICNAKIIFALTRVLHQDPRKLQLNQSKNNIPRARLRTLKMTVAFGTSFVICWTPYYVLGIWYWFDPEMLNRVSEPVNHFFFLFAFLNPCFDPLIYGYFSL

[2] = molecular target: T2, Gonadotropin-releasing hormone receptor (Homo sapiens, UniProt P30968); assay: Antagonist activity at human GnRH receptor assessed as inhibition of [D-Trp6]-GnRH-stimulated [3H]IP […]; type: functional
T2 sequence (P30968 whole entry): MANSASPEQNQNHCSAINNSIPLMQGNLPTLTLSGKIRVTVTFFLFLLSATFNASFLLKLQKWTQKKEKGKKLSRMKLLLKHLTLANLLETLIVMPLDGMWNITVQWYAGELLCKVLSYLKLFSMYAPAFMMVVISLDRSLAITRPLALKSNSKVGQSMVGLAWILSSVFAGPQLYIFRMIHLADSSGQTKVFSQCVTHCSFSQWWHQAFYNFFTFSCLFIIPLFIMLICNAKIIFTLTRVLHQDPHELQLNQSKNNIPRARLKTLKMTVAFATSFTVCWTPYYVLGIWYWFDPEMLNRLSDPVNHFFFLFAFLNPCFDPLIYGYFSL

[3] = molecular target: T2, Gonadotropin-releasing hormone receptor; assay: Displacement of [D-Trp6]-GnRH from human recombinant GnRH receptor
[4] = molecular target: T1, Gonadotropin-releasing hormone receptor; assay: Antagonist activity at rat recombinant GnRH receptor assessed as inhibition of [D-Trp6]-GnRH-stimulated LH release from rat pituitary cells; type: functional, cell-based, Pituitary gland cell
[5] = Aqueous solubility at pH 7.4; type: physicochemical
[6] = Metabolic stability in rat liver microsomes assessed as half life; type: ADME, Microsome
[7] = Permeability across artificial membrane; type: ADME; details: PAMPA; read-out: permeability
[8] = Half life in castrated rat at 1 mg/kg, iv; type: ADME, organism-based; set-up: dose 1 mg/kg, route intravenous; details: male, in vivo
[9] = Clearance in castrated rat plasma at 1 mg/kg, iv; type: ADME, organism-based; set-up: dose 1 mg/kg, route intravenous; details: male
[10] = Volume of distribution at steady state in castrated rat at 1 mg/kg, iv; type: ADME, organism-based; set-up: dose 1 mg/kg, route intravenous; details: male, in vivo, read-out: Vdss
[11] = AUC (0 to infinity) in castrated rat at 1 mg/kg, iv; type: ADME, organism-based; set-up: time infinity, dose 1 mg/kg, route intravenous; details: male, plasma
[12] = Half life in castrated rat at 20 mg/kg, po; type: ADME, organism-based; set-up: dose 20 mg/kg, route oral; details: male, in vivo
[13] = Cmax in castrated rat at 20 mg/kg, po; type: ADME, organism-based; set-up: dose 20 mg/kg, route oral; details: male, in vivo
[14] = Tmax in castrated rat at 20 mg/kg, po; type: ADME, organism-based; set-up: dose 20 mg/kg, route oral; details: male, in vivo
[15] = AUC (0 to infinity) in castrated rat at 20 mg/kg, po; type: ADME, organism-based; set-up: time infinity, dose 20 mg/kg, route oral; details: male, plasma
[16] = Oral bioavailability in castrated rat at 20 mg/kg; type: ADME, organism-based; details: male, in vivo
Rattus norvegicus [17] = assay: Reduction of serum LH level in castrated rat at 30 mg/kg, po after 1 hr; type: functional, organism-based; set-up: dose 30 mg/kg
[18] = molecular target: Voltage-gated inwardly rectifying potassium channel KCNH2 (Homo sapiens, UniProt Q12809); assay: Inhibition of human ERG potassium channel at 2 uM
Sequence of Voltage-gated inwardly rectifying potassium channel KCNH2 (Q12809 whole entry): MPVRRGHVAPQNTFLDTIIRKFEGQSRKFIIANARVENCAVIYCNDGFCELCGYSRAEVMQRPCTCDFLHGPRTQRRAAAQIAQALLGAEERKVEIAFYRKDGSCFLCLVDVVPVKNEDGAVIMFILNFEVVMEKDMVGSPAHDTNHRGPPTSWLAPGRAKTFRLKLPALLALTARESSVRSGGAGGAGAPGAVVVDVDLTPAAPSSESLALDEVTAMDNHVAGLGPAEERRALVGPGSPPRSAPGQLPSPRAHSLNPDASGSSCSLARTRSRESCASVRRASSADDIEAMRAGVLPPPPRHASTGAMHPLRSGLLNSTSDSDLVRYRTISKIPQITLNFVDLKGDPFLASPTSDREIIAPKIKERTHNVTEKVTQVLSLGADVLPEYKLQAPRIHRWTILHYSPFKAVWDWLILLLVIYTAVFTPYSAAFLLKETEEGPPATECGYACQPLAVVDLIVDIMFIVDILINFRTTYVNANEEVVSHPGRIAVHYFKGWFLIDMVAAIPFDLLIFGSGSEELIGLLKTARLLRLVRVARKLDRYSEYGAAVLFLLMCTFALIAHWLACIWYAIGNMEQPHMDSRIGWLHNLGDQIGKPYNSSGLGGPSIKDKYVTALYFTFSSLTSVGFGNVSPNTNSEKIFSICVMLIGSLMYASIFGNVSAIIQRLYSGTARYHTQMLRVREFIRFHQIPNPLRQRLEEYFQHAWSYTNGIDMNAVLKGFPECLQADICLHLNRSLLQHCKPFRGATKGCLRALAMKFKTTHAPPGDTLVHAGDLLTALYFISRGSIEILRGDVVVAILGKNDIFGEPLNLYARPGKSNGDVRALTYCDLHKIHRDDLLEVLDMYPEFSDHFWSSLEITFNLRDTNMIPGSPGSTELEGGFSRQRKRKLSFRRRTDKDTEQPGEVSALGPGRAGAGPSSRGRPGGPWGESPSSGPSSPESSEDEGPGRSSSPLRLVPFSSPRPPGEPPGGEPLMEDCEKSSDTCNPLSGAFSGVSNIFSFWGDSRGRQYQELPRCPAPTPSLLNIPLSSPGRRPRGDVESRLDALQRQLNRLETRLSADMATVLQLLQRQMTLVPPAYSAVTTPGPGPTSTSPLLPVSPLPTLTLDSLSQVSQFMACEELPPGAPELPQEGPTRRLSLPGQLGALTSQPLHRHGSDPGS

[19] = molecular target: Opioid receptors; mu/kappa/delta (Homo sapiens, UniProt P41145+P41143+P35372); assay: Inhibition of human non-selective opioid receptor
Substance-K receptor = molecular target: T3, Substance-K receptor (Homo sapiens, UniProt P21452); assay: Inhibition of human neurokinin NK2 receptor
T3 sequence (P21452 whole entry): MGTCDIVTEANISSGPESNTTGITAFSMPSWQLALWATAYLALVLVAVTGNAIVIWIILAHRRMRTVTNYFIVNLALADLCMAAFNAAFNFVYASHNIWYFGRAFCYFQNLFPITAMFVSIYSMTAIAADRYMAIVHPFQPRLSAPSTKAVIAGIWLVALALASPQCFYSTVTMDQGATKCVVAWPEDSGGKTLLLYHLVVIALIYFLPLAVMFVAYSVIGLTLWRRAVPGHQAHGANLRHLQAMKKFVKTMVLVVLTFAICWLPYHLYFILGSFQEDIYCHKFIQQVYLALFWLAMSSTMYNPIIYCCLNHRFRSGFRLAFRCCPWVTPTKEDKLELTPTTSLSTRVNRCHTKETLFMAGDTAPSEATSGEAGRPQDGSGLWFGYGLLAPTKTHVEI

Histamine H2 receptor = Histamine H2 receptor (Homo sapiens, UniProt P25021); assay: Inhibition of human histamine H2 receptor
Sequence of Histamine H2 receptor (P25021 whole entry): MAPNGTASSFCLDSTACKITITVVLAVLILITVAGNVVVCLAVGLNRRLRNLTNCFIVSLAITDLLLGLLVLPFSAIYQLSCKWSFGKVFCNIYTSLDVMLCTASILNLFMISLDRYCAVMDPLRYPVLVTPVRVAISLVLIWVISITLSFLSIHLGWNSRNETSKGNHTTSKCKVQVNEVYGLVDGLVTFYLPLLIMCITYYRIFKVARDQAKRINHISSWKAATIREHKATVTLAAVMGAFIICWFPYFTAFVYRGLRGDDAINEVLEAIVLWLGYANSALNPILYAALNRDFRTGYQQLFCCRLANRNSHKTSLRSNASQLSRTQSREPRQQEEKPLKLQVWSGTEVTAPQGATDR

Rattus norvegicus [20] = assay: Reduction of serum LH level in castrated rat at 30 mg/kg, po after 6 hr; type: functional, organism-based; set-up: dose 30 mg/kg

Row | Structure (SMILES) | pIC50 [1] | pIC50 [2] | pIC50 [3] | pIC50 [4] | solubility [5] [µg/mL] | half-life [6] [min] | Papp [7] [×10⁻⁶ cm/s] | further results
1 | CC(C)(C)c1ccc(-c2nc3c(N4CCN(Cc5ccc6[nH]c(=O)c(=O)n(Cc7cccnc7)c6c5)CC4)cccc3[nH]2)cc1 | 7.33 | 7.85 | 8.25 | 7.16 | < 1 | 10 | 0.05 | –
2 | CC(C)(C)c1ccc(-c2nc3c(N4CCN(Cc5ccc6ncccc6c5)CC4)cccc3[nH]2)cc1 | – | 7.19 | 7.68 | 6.08 | 2 (≈ 4.2 µM) | – | 0.4 | –
3 | CC(C)(C)c1ccc(-c2nc3c(N4CCN(Cc5cnc6[nH]c(=O)c(=O)[nH]c6c5)CC4)cccc3[nH]2)cc1 | 7.48 | 8.01 | 8.74 | 6.62 | 4 (≈ 7.85 µM) | 30 | < 0.1 | –
4 | CC(C)(C)c1ccc(-c2nc3c(N4CCN(Cc5cccc6nccnc56)CC4)cccc3[nH]2)cc1 | – | 6.40 | 7.59 | 5.23 | – | – | – | –
5 | Cn1c(=O)c(=O)[nH]c2ccc(CN3CCN(c4cccc5[nH]c(-c6ccc(C(C)(C)C)cc6)nc45)CC3)cc21 | 7.77 | 8.13 | 8.46 | 7.36 | < 1 | – | – | –
6 | CC(C)(C)c1ccc(-c2nc3c(N4CCN(Cc5ccc6nccnc6c5)CC4)cccc3[nH]2)cc1 | 7.15 | 7.55 | 7.92 | 6.46 | – | 16 | 0.23 | half-life [8]: 162 min; clearance [9]: 38 mL/min/kg; Vd [10]: 6.1 L/kg; AUC(0-inf) [11]: 447 ng·h/mL; half-life [12]: 222 min; Cmax [13]: 1330 ng/mL; Tmax [14]: 120 min; AUC(0-inf) [15]: 6640 ng·h/mL; bioavailability [16]: 74%; Activity (Rattus norvegicus [17]): Active; Activity [18]: Not Active; Ki [19]: 550 nM; pKi (Substance-K receptor): 6.48; pKi (Histamine H2 receptor): 6.07; Activity (Rattus norvegicus [20]): Active
7 | CC(C)(C)c1ccc(-c2nc3c(N4CCN(Cc5ccc6c(c5)NCC(=O)N6)CC4)cccc3[nH]2)cc1 | 7.06 | 7.80 | 7.80 | 6.92 | 1 (≈ 2.02 µM) | 3 | 0.05 | –
8 | CC(C)(C)c1ccc(-c2nc3c(N4CCN(Cc5ccc6cccnc6c5)CC4)cccc3[nH]2)cc1 | – | 6.85 | 7.62 | 6.27 | 4 (≈ 8.41 µM) | – | 1.5 | –
9 | CC(C)(C)c1ccc(-c2nc3c(N4CCN(Cc5ccc6[nH]c(=O)c(=O)[nH]c6c5)CC4)cccc3[nH]2)cc1 | – | – | – | – | < 1 | 14 | < 0.1 | –
